Experimental data as given in ChEMBL document CHEMBL4725368, “Novel C-7 carbon substituted fourth generation fluoroquinolones targeting N. Gonorrhoeae infections” (Bioorg Med Chem Lett, 2020).
Values after ≈ are worked out from the molar mass of the structure shown.

Assays:
[1] = Acid dissociation constant, pKa of the compound; assay type: physicochemical
physchem [2] = conditions: octanol/water, pH 7.4
Description: Distribution coefficient, logD of the compound at pH 7.4

Klebsiella pneumoniae = test: Antibacterial activity against Klebsiella pneumoniae ATCC 700603 assessed as reduction in bacterial growth by CLSI protocol based microdilution method; assay type: functional
Acinetobacter baumannii = test: Antibacterial activity against Acinetobacter baumannii ATCC 19606 assessed as reduction in bacterial growth by CLSI protocol based microdilution method; assay type: functional; conditions: ATCC 19606 = CIP 70.34 = JCM 6841
physchem [3] = test: physchem
Description: Kinetic solubility of the compound

Escherichia coli = test: Antibacterial activity against Escherichia coli ATCC 25922 assessed as reduction in bacterial growth by CLSI protocol based microdilution method; assay type: functional
Neisseria gonorrhoeae [4] = test: Antibacterial activity against Neisseria gonorrhoeae ATCC 49226 assessed as reduction in bacterial growth by CLSI protocol based microdilution method; assay type: functional
[5] = Intrinsic clearance in human hepatocytes assessed per 10^6 cells; assay type: ADME, cell-based, Hepatocyte; conditions: read-out: CLH
Cytochrome P450 3A4 = Cytochrome P450 3A4 (Homo sapiens, UniProt P08684)
Sequence of Cytochrome P450 3A4 (P08684 whole entry): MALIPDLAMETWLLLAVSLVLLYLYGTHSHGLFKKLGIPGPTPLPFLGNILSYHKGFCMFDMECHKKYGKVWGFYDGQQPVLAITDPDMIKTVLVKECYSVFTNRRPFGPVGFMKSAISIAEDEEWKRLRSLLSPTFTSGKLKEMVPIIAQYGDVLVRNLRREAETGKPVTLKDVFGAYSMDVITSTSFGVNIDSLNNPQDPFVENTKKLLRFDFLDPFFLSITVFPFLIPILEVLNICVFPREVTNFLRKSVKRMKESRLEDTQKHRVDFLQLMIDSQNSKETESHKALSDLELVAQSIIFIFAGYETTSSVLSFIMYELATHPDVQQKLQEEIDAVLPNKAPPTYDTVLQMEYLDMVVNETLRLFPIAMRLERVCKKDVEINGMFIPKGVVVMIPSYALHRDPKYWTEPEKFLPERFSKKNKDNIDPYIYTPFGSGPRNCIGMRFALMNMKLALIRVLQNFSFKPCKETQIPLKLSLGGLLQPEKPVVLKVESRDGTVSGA
Description: Inhibition of CYP3A4 (unknown origin)

Cytochrome P450 2C9 = Cytochrome P450 2C9 (Homo sapiens, UniProt P11712)
Sequence of Cytochrome P450 2C9 (P11712 whole entry): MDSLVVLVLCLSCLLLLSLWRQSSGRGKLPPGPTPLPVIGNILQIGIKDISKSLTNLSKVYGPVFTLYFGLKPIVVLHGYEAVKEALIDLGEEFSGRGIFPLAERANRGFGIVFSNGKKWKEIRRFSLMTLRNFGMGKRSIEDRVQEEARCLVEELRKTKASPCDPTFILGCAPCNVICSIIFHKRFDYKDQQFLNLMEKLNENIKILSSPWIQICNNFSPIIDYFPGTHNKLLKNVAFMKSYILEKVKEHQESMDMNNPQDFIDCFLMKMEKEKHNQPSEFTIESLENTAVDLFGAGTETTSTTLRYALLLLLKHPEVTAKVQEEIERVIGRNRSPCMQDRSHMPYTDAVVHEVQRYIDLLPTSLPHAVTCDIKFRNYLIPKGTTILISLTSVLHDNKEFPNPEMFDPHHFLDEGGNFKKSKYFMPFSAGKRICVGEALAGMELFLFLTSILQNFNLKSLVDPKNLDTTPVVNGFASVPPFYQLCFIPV
Description: Inhibition of CYP2C9 (unknown origin)

Cytochrome P450 2C19 = Cytochrome P450 2C19 (Homo sapiens, UniProt P33261)
Sequence of Cytochrome P450 2C19 (P33261 whole entry): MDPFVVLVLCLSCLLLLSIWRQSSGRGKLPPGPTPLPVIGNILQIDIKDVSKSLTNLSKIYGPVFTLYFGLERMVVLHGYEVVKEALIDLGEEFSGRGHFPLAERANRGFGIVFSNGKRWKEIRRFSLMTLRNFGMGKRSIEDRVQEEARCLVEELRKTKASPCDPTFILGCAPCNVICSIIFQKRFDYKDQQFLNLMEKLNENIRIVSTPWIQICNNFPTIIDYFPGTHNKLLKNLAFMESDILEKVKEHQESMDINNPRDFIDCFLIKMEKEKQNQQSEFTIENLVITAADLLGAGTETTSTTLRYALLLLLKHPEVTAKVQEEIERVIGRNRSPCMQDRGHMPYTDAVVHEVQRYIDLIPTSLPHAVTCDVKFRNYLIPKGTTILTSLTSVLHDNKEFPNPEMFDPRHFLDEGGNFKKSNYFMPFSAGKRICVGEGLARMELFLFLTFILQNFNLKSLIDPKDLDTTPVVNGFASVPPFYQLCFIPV
Description: Inhibition of CYP2C19 (unknown origin)

Cytochrome P450 1A2 = target: T1, Cytochrome P450 1A2 (Homo sapiens, UniProt P05177)
T1 sequence (P05177 whole entry): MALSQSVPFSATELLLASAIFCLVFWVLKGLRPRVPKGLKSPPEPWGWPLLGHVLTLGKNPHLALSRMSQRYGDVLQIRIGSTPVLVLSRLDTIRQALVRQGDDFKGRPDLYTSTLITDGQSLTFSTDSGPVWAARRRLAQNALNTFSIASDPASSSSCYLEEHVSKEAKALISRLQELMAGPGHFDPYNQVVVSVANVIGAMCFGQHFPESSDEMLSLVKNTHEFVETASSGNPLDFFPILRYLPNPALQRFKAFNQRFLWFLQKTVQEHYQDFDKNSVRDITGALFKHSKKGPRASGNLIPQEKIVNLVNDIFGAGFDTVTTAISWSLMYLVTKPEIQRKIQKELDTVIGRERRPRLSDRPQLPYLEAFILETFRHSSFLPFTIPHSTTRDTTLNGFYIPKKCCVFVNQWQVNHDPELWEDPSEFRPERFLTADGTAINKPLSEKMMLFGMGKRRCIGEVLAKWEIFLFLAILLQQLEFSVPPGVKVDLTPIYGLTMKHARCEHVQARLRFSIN
Description: Inhibition of CYP1A2 (unknown origin)

[6] = Intrinsic clearance in human liver microsomes; assay type: ADME, Microsome; conditions: read-out: CLH
Cytochrome P450 2D6 = Cytochrome P450 2D6 (Homo sapiens, UniProt P10635)
Sequence of Cytochrome P450 2D6 (P10635 whole entry): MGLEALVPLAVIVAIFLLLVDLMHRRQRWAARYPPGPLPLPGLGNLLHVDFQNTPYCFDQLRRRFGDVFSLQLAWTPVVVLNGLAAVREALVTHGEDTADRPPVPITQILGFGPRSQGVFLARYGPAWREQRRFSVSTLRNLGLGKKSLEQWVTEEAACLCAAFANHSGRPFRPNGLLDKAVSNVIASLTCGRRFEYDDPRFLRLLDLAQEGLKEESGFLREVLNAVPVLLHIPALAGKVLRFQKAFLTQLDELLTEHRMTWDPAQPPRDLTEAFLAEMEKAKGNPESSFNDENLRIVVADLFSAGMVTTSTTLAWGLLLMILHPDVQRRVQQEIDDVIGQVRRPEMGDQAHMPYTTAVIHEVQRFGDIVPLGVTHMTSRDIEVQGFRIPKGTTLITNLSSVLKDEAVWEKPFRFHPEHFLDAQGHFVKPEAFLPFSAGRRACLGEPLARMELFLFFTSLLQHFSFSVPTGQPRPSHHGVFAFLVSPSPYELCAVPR
Description: Inhibition of CYP2D6 (unknown origin)

Enterococcus faecalis = test: Antibacterial activity against Enterococcus faecalis ATCC 29212 assessed as reduction in bacterial growth by CLSI protocol based microdilution method; assay type: functional
Staphylococcus aureus = test: Antibacterial activity against Staphylococcus aureus ATCC 29213 assessed as reduction in bacterial growth by CLSI protocol based microdilution method; assay type: functional
Pseudomonas aeruginosa = test: Antibacterial activity against Pseudomonas aeruginosa PAO1 assessed as reduction in bacterial growth by CLSI protocol based microdilution method; assay type: functional
Neisseria gonorrhoeae [7] = test: Antibacterial activity against fluoroquinolone-resistant Neisseria gonorrhoeae WHO L harboring multiple point mutations at DNA gyrase and topoisomerase IV and porB1b mutation assessed as reduction in bacterial growth by CLSI protocol based microdilution method; assay type: functional
hERG (KCNH2) [8] = target: T2, hERG (KCNH2) (Homo sapiens, UniProt Q12809); test: Inhibition of human ERG at 100 uM relative to control
T2 sequence (Q12809 whole entry): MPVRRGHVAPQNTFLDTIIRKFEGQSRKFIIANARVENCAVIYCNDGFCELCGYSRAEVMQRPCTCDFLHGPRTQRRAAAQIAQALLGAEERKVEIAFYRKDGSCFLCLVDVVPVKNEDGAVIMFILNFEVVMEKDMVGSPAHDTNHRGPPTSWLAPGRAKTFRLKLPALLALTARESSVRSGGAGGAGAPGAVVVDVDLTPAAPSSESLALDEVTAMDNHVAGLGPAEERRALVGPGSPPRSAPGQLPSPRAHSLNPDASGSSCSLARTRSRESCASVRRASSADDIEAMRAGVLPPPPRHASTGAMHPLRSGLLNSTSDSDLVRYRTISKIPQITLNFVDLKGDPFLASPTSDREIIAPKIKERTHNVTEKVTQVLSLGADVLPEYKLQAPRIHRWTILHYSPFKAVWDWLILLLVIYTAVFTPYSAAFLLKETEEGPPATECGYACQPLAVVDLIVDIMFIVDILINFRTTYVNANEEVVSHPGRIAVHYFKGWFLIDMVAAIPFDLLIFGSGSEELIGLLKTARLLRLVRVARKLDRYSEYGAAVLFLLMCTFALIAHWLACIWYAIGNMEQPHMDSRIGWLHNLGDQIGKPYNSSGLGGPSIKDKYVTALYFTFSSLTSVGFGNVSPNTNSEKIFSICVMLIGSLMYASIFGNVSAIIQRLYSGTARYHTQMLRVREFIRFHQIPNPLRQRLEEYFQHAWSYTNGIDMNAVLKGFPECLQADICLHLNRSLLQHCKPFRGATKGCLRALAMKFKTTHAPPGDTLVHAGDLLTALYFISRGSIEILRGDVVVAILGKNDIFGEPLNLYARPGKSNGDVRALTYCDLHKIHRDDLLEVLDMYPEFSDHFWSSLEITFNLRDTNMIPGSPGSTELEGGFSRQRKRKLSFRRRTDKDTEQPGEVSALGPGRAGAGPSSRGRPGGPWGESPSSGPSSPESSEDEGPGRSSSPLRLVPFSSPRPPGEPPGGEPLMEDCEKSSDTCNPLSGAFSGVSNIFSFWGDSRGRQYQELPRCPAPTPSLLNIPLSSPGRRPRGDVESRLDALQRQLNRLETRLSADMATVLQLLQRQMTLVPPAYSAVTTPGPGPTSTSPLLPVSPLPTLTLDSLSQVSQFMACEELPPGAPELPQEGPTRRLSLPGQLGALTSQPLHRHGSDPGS

in vitro = conditions: human, plasma
Description: Protein binding in human plasma assessed as free fraction

[9] = Oral bioavailability in human at 400 mg measured every 12 hrs; assay type: ADME, organism-based; conditions: in vivo
hERG (KCNH2) [10] = target: T2, hERG (KCNH2); test: Inhibition of human ERG at 30 uM relative to control
[11] = target: Voltage-gated inwardly rectifying potassium channel KCNH2 (Homo sapiens, UniProt Q12809); test: Inhibition of human ERG up to 185 uM
Sequence of Voltage-gated inwardly rectifying potassium channel KCNH2 (Q12809 whole entry): as above

Neisseria gonorrhoeae [12] = test: Antibacterial activity against Neisseria gonorrhoeae assessed as reduction in bacterial growth; assay type: functional
[13] = Oral bioavailability in human at 450 mg measured every 12 hrs; assay type: ADME, organism-based; conditions: in vivo

Work on Nc1nc(-n2cc(C(=O)O)c(=O)c3cc(F)c([C@H]4C[C@H](O)C4)c(Cl)c32)c(F)cc1F yielded a pKa [1] of 5.04, a logD (physchem [2]) of 0.3 and an MIC (Klebsiella pneumoniae) of 8 µg/mL (≈ 18.2 µM). It also gave an MIC (Acinetobacter baumannii) of 64 µg/mL (≈ 146 µM), a solubility kinetic (physchem [3]) of 59.3 µM (≈ 26.1 µg/mL) and an MIC (Escherichia coli) of 0.12 µg/mL (≈ 0.273 µM). The MIC (Neisseria gonorrhoeae [4]) was 0.01 µg/mL (≈ 0.0227 µM), the hepatocyte CLint [5] was 6.8 µL/min/1e6 cells and the IC50 (Cytochrome P450 3A4) was > 50 µM. The IC50 (Cytochrome P450 2C9) was 41.7 µM, the IC50 (Cytochrome P450 2C19) was > 50 µM and the IC50 (Cytochrome P450 1A2) was > 50 µM. For the same molecule, the microsomal CLint [6] was < 5 µL/min/mg, the IC50 (Cytochrome P450 2D6) was > 50 µM and the MIC (Enterococcus faecalis) was 0.5 µg/mL (≈ 1.14 µM). It also gave an MIC (Staphylococcus aureus) of 0.03 µg/mL (≈ 0.0682 µM), an MIC (Pseudomonas aeruginosa) of 2 µg/mL (≈ 4.55 µM) and an MIC (Neisseria gonorrhoeae [7]) of 0.12 µg/mL (≈ 0.273 µM). For the same molecule, the inhibition at 100 µM (hERG (KCNH2) [8]) was 18% and the fraction unbound (in vitro) was 0.105.
With Nc1nc(-n2cc(C(=O)O)c(=O)c3cc(F)c([C@H]4C[C@@H](O)C4)c(Cl)c32)c(F)cc1F the pKa [1] was 4.96, the logD (physchem [2]) was 0.3 and the MIC (Klebsiella pneumoniae) was 4 µg/mL (≈ 9.1 µM). For the same molecule, the MIC (Acinetobacter baumannii) was 16 µg/mL (≈ 36.4 µM), the solubility kinetic (physchem [3]) was 44.8 µM (≈ 19.7 µg/mL) and the MIC (Escherichia coli) was 0.12 µg/mL (≈ 0.273 µM). For the same molecule, the MIC (Neisseria gonorrhoeae [4]) was 0.06 µg/mL (≈ 0.136 µM), the hepatocyte CLint [5] was 9.2 µL/min/1e6 cells and the IC50 (Cytochrome P450 3A4) was 24.8 µM. For the same molecule, the IC50 (Cytochrome P450 2C9) was > 50 µM, the IC50 (Cytochrome P450 2C19) was > 50 µM and the IC50 (Cytochrome P450 1A2) was > 50 µM. For the same molecule, the microsomal CLint [6] was < 5 µL/min/mg, the IC50 (Cytochrome P450 2D6) was > 50 µM and the MIC (Enterococcus faecalis) was 0.25 µg/mL (≈ 0.568 µM). The MIC (Staphylococcus aureus) was 0.03 µg/mL (≈ 0.0682 µM), the MIC (Pseudomonas aeruginosa) was 4 µg/mL (≈ 9.1 µM) and the MIC (Neisseria gonorrhoeae [7]) was 0.12 µg/mL (≈ 0.273 µM). For the same molecule, the inhibition at 100 µM (hERG (KCNH2) [8]) was 15% and the fraction unbound (in vitro) was 0.124.
COc1c(N2C[C@@H]3CCCN[C@@H]3C2)c(F)cc2c(=O)c(C(=O)O)cn(C3CC3)c12 [MOXIFLOXACIN] showed a bioavailability [9] of 92%.
Nc1nc(-n2cc(C(=O)O)c(=O)c3cc(F)c(N4CC(N)C4)c(Cl)c32)c(F)cc1F gave a pKa [1] of 5.33, a logD (physchem [2]) of -0.3 and an MIC (Klebsiella pneumoniae) of 0.25 µg/mL (≈ 0.568 µM). The MIC (Acinetobacter baumannii) was 2 µg/mL (≈ 4.55 µM), the inhibition at 30 µM (hERG (KCNH2) [10]) was 6% and the solubility kinetic (physchem [3]) was 3.6 µM (≈ 1.58 µg/mL). The MIC (Escherichia coli) was 0.001 µg/mL (≈ 0.00227 µM), the MIC (Neisseria gonorrhoeae [4]) was 0.007 µg/mL (≈ 0.0159 µM) and the hepatocyte CLint [5] was 3 µL/min/1e6 cells. The IC50 (Cytochrome P450 3A4) was 13.6 µM, the IC50 (Cytochrome P450 2C9) was 12.7 µM and the IC50 (Cytochrome P450 2C19) was > 50 µM. The IC50 (Cytochrome P450 1A2) was > 50 µM, the microsomal CLint [6] was < 5 µL/min/mg and the IC50 (Cytochrome P450 2D6) was > 50 µM. It also gave an MIC (Enterococcus faecalis) of 0.12 µg/mL (≈ 0.273 µM), an MIC (Staphylococcus aureus) of 0.003 µg/mL (≈ 0.00682 µM) and an MIC (Pseudomonas aeruginosa) of 0.12 µg/mL (≈ 0.273 µM). For the same molecule, the MIC (Neisseria gonorrhoeae [7]) was 0.06 µg/mL (≈ 0.136 µM) and the fraction unbound (in vitro) was 0.297.
With Nc1nc(-n2cc(C(=O)O)c(=O)c3cc(F)c(N4CC(O)C4)c(Cl)c32)c(F)cc1F [DELAFLOXACIN] the pKa [1] was 5.47, the “inhibition (INH)” value [11] was “Not Active” and the logD (physchem [2]) was 0.7. It also gave an MIC (Klebsiella pneumoniae) of 0.25 µg/mL (≈ 0.567 µM), an MIC (Acinetobacter baumannii) of 8 µg/mL (≈ 18.2 µM) and a solubility kinetic (physchem [3]) of 58.1 µM (≈ 25.6 µg/mL). For the same molecule, the MIC (Escherichia coli) was 0.01 µg/mL (≈ 0.0227 µM), the MIC (Neisseria gonorrhoeae [4]) was 0.06 µg/mL (≈ 0.136 µM) and the hepatocyte CLint [5] was 3 µL/min/1e6 cells. For the same molecule, the IC50 (Cytochrome P450 2C9) was > 50 µM, the IC50 (Cytochrome P450 2C19) was > 50 µM and the IC50 (Cytochrome P450 1A2) was > 50 µM. The microsomal CLint [6] was < 5 µL/min/mg, the MIC (Neisseria gonorrhoeae [12]) was ≥ 0.008 µg/mL and the MIC90 (Neisseria gonorrhoeae [12]) was 0.125 µg/mL (≈ 0.284 µM). The IC50 (Cytochrome P450 2D6) was > 50 µM, the MIC (Enterococcus faecalis) was 0.03 µg/mL (≈ 0.0681 µM) and the MIC (Staphylococcus aureus) was 0.003 µg/mL (≈ 0.00681 µM). The MIC (Pseudomonas aeruginosa) was 1 µg/mL (≈ 2.27 µM), the MIC (Neisseria gonorrhoeae [7]) was 0.03 µg/mL (≈ 0.0681 µM) and the bioavailability [13] was 59%. It also gave an inhibition at 100 µM (hERG (KCNH2) [8]) of 19% and a fraction unbound (in vitro) of 0.149.
